B1: MBP: myelin basic protein, a negative control (protein, UniProt P02686 1-304, looked up)
Myelin basic protein: MGNHAGKRELNAEKASTNSETNRGESEKKRNLGELSRTTSEDNEVFGEADANQNNGTSSQDTAVTDSKRTADPKNAWQDAHPADPGSRPHLIRLFSRDAPGREDNTFKDRPSESDELQTIQEDSAATSESLDVMASQKRPSQRHGSKYLATASTMDHARHGFLPRHRDTGILDSIGRFFGGDRGAPKRGSGKDSHHPARTAHYGSLPQKSHGRTQDENPVVHFFKNIVTPRTPPPSQGKGRGLSLSRFSWGAEGQRPGFGYGGRASDYKSAHKGFKGVDAQGTLSKIFKLGGRDSRSGSPMARR

Tests used:
[1] = tested on: IFN-γ mRNA in LN cells; assay: IFN-γ mRNA by real-time PCR in LN cells of GA-immunized CD-1, BALB/cByJ, SJL/J mice (Example III); type: cell-based, mouse; details: 6 hours
Method: On Day 0, mice were immunized with 250 μg GA (GMA, Mylan Pharmaceuticals, Inc.) and CFA. The GA solution (20 mg/mL) was diluted with Dulbecco's Phosphate-Buffered Saline to 5 mg/mL. The dosing formulation consisted of equal volumes of the diluted GA solution (5 mg/mL) and CFA solution, mixed until well-emulsified. Animals were weighed and allocated to groups. Animals were dosed by injection into four footpads. The injection volume per animal was 0.1 mL (about 10 μL into each front footpad, and 40 μL into each hind footpad).
Immunized animals were euthanized by cervical dislocation on Day 10 post-immunization. Lymph node cells were isolated from animals and treated with Myelin Basic Protein (MBP, a negative control), Concanavalin A (ConA, a positive control) or GA as shown in Table 16. Lymph nodes in the axillary and popliteal regions were removed aseptically in a purifier clean bench. […] The LN were then washed 3 times with −5 mL of RPMI medium, and isolated by pressing the LN with a syringe plunger. […] The cell suspension was centrifuged at about 200×g for 10 minutes at about 4° C. and re-suspended in ice cold enriched DCCM-1 medium. Cells were seeded in 96-well tissue culture plates.
LN cells isolated from GA-immunized animals were stimulated with GA (GMA, Mylan Pharmaceuticals, Inc.) at concentrations as indicated in Tables 16 and 17. A positive control was prepared by treating LN cells with 2.5 μg/mL concavalin A (ConA, a non-specific T cell stimulant). Myelin basic protein (MBP, 10 μg/mL) and enriched DCCM-1 medium served as negative controls. The cells from all groups each were stimulated with the same GA lot. Each reaction was set up in triplicate.
After incubation at about 37° C. in a humidified CO2 incubator for 6 hours, the cells were lysed for total RNA isolation. Total RNA was isolated from treated LN cells using SV 96 Total RNA Isolation System according to the manufacturer's protocol (Promega, Cat. #Z3500). Cells were washed once with Phosphate Buffered Saline (PBS) and lysed in RNA lysis buffer. The lysate was transferred to wells of the SV 96 binding plate. Samples were washed with RNA wash solution and treated with DNase. Total RNA was eluted with nuclease-free water from the binding plate.
After the reverse transcriptase reaction was completed, cDNA samples were used directly for real-time PCR to measure the response biomarker mRNA levels produced by the stimulated cells. […] All probes for target genes contained FAM dye, and probes for the internal control contained VIC®/MGB dye. Samples will be prepared and run in 96-well plates using a Real-Time PCR system (7500, Life Technologies). This system allows direct detection of PCR-product formation by measuring the increase in fluorescent emission continuously during the PCR reaction. A relative quantitation method was used to analyze changes in mouse IL-2, IL-4, IL-5, IL-10, IL-13, IFN-γ and TNF-α expression in GA-treated samples relative to the untreated control (enriched DCCM-1 treated) samples. The Real-Time PCR program was:
The levels of mouse cytokine amplicons (IL-2, IL-4, IL-5, IL-10, IL-13, mIFN-γ and TNF-α) were normalized to internal probe levels (GAPDH) from the same samples. The following equations were used to calculate the relative increase in response to GA stimulation compared to the control sample: ΔCT=CT_target−CT_reference ΔΔCT=−ΔCT_Treated−CT_VC

[2] = tested on: KC (CXCL1) secreted by LN cells; assay: KC (CXCL1) secretion by GA-stimulated LN cells, MSD 9-plex ELISA (Example II); type: cell-based, mouse; details: 21 hr
Method: Animals at 8 weeks of age were immunized by injection into four footpads using a 1 mL syringe with a 27-G, 1⁄2-inch needle. […] Ten days post-immunization, immunized animals were sacrificed via cervical dislocation. […] The LN cells were isolated by pressing the LN with the plunger end of a sterile syringe. […] Trypan blue exclusion method was used to determine the cell density of viable cells in the suspension. […] Cat. […] LN cells were plated into a 24-well tissue culture plate for drug stimulation. […] Cell debris was removed by centrifugation at ca. 200×g for 10 minutes at 4° C. Cytokines secreted by treated cells were determined on the day of collection by ELISA using mouse TH 1/TH 2 9-Plex Tissue Culture Kit (Meso Scale Discovery; Cat No. […]-2, Lot #: K0032839) which detects Th1 cytokines (IFN-γ, IL-2, IL-12, IL-1β, TNF-α, CXCL1) and Th2 cytokines (IL-4, IL-5 and IL-10). For IFN-γ, culture media also were assayed at 45 hours using mouse IFN-γ Tissue Culture Kit (Meso Scale Discovery; Cat No. […] For the positive control, 0.5 mL of LN cells (5×10^6 cells/well) were treated with 0.5 mL of ConA (5 μg/mL). For the negative control, 0.5 mL of LN cells (5×10^6 cells/well) were treated with 0.5 mL of MBP (20 μg/mL). The LN cells with mock stimulation (enriched DCCM1 medium) were used to monitor the background level of a cytokine. For the cytokine assays, calibration standards or samples were incubated in the MULTI-SPOT or the SINGLE-SPOT plate and each cytokine bound to its corresponding capture antibody. All test samples were run in duplicate. The amount of each cytokine on its distinct spot was quantified using a cytokine-specific detection antibody labeled with MSD SULFO-TAGTM reagent. Electrochemiluminescent signals from immobilized SULFO-TAGTM-labeled complexes on each spot from each well were captured by the MSD SECTOR Imager 6000, which produces a signal directly proportional to the amount of captured cytokine in a test sample. The levels of cytokines in test samples were derived by interpolation from calibration curves with calibration standards of known concentrations using reagents provided with the MSD kits. Kits were used according to the manufacturer's protocols. […] Data are expressed as a response ratio of cytokine concentration in treated cell medium to control DCCM1 medium.

[3] = BALB/cByJ, immunized GA Intraplantar
[4] = BALB/cByJ, immunized Mannitol Intraplantar
[5] = C57BL10J, immunized Mannitol Intraplantar
[6] = CD-1, immunized GA Intraplantar
[7] = CD-1, immunized Mannitol Intraplantar
[8] = Group 1C: CD-1, GA-immunized, stimulation 10 μg/mL
[9] = Group 2C: BALB/cByJ, GA-immunized, stimulation 10 μg/mL
[10] = Group 3C: SJL/J, GA-immunized, stimulation 10 μg/mL

Molecule	IFN-γ mRNA Expression ([1]; Group 1C: CD-1, GA-immunized, stimulation 2.5 μg/mL) [fold change vs control]	IFN-γ mRNA Expression ([1]; Group 2C: BALB/cByJ, GA-immunized, stimulation 2.5 μg/mL) [fold change vs control]	IFN-γ mRNA Expression ([1]; Group 3C: SJL/J, GA-immunized, stimulation 2.5 μg/mL) [fold change vs control]	KC secretion response ratio (treated cell medium to control DCCM1 medium) [2, 3]	KC secretion response ratio (treated cell medium to control DCCM1 medium) [2, 4]	KC secretion response ratio (treated cell medium to control DCCM1 medium) [2, 5]	KC secretion response ratio (treated cell medium to control DCCM1 medium) [2, 6]	KC secretion response ratio (treated cell medium to control DCCM1 medium) [2, 7]	IFN-γ mRNA Expression ([1]; Group 1C: CD-1, GA-immunized, stimulation 0.3 μg/mL) [fold change vs control]	IFN-γ mRNA Expression ([1]; Group 1C: CD-1, GA-immunized, stimulation 1 μg/mL) [fold change vs control]	IFN-γ mRNA Expression ([1]; Group 1C: CD-1, GA-immunized, stimulation 3 μg/mL) [fold change vs control]	IFN-γ mRNA Expression [1, 8] [fold change vs control]	IFN-γ mRNA Expression ([1]; Group 2C: BALB/cByJ, GA-immunized, stimulation 0.3 μg/mL) [fold change vs control]	IFN-γ mRNA Expression ([1]; Group 2C: BALB/cByJ, GA-immunized, stimulation 1 μg/mL) [fold change vs control]	IFN-γ mRNA Expression ([1]; Group 2C: BALB/cByJ, GA-immunized, stimulation 3 μg/mL) [fold change vs control]	IFN-γ mRNA Expression [1, 9] [fold change vs control]	IFN-γ mRNA Expression ([1]; Group 3C: SJL/J, GA-immunized, stimulation 0.3 μg/mL) [fold change vs control]	IFN-γ mRNA Expression ([1]; Group 3C: SJL/J, GA-immunized, stimulation 1 μg/mL) [fold change vs control]	IFN-γ mRNA Expression ([1]; Group 3C: SJL/J, GA-immunized, stimulation 3 μg/mL) [fold change vs control]	IFN-γ mRNA Expression [1, 10] [fold change vs control]
Concanavalin A [ConA, reference compound]	4.0	1.4	1.4	1.52	1.00	1.34	1.56	2.55	–	–	–	–	–	–	–	–	–	–	–	–
L-glutamic acid polymer with L-alanine, L-lysine and L-tyrosine, acetate (salt) [GA]	–	–	–	–	–	–	–	–	1.6	2.8	4.3	3.1	1.2	1.7	2.8	2.2	0.9	1.7	2.5	2.2
B1	–	–	–	1.04	0.96	1.12	1.05	1.09	–	–	–	0.8	–	–	–	0.2	–	–	–	0.2

Source: patent publication US10344330B2, “Glatiramer acetate response biomarker mRNA potency assay” (Mylan Inc., priority 2013, dated 2019)
